Key:
[1] = tested on: NCI-H358 tumor-bearing mice; test: Anti-tumor efficacy in NCI-H358 tumor-bearing mice, combination with AMG510; format: in vivo, NOG mice
Experimental: SPF female NOG mice (purchased from Beijing Vital River Laboratory Animal Technology Co., Ltd.) with certificate No. 1100112211001153625 were used in the experiment.
NCI-H358 cells were routinely subcultured for the subsequent in-vivo experiment. The cells were collected by centrifugation. Then the NCI-H358 cells were resuspended in an equal-proportion mixture of PBS (1×) and Matrigel Matrix (Corning) to prepare a cell suspension with a cell concentration of 25×10^6 cells/mL. On day 0, 0.2 mL of the cell suspension was taken and subcutaneously inoculated to the right abdominal area of NOG mice to establish NCI-H358 tumor-bearing mouse models.
Six days after the tumor cell inoculation, the tumor volume in each mouse was measured. The mice were grouped (with 7 mice in each group).
Administration was performed on days 6, 9, 12, and 15 after the inoculation of NCI-H358 cells. Mice were monitored for tumor volume and body weight twice a week. […] Mice were monitored for tumor volume twice a week, and were monitored for body weight every day during the administration, and twice a week after the end of administration. […] On day 33 after the inoculation, the relative tumor growth inhibition (TG1%) was calculated by the following formula: TG1%=100%×(control group tumor volume−treatment group tumor volume)/(control group tumor volume−control group tumor volume before administration).
Tumor volume measurement: The maximum length of major axis (L) and maximum length of minor axis (W) of tumors were measured with a vernier caliper, and tumor volume was calculated by the following formula: V=L×W^2/2. The mice were weighed using an electronic balance.

[2] = tested on: LS180 (EGFR^R521K, KRAS^G12D) CRC tumor cell line; test: Proliferation inhibition experiment, LS180, combination with MRTX1133; format: cell-based; details: 15.62 nM MRTX1133, read as without bsAb (starting value of the increase)
Experimental: • (1) NSCLC (H358) (Cobioer, CBP60136) and CRC (LS180) (Cobioer, CBP60034): plated at 1500-2500 cells/100 μL in a 96-well low-adsorption plate (Corning, CLS7007-24EA) for 3D cell culture. • (2) The antibody molecules and small molecule inhibitors prepared in advance by dilution were added to the corresponding cell well plate, mixed well, and cultured at 37° C. with 5% CO2 for 5 days. • (3) After 5 days of continuous culture for proliferation inhibition assay, the Cell-Titer reagent (Promega, G7572) prepared in advance was added to cell wells, and the plate was left to stand at room temperature for 15-25 min in the dark. • (4) Cell-Titer and the above cell mixture were transferred to a 96-well white-bottom plate (NUNC, 136101) and detected by a multimode microplate reader (Molecular Devices, Spectra MAXi3).

[3] = tested on: SK-MES-1; test: Proliferation inhibition experiment, SK-MES-1 (NSCLC); format: cell-based; details: TKI highest concentration 1000 nM
Experimental: (§1) • (1) NSCLC: plated at 1500-2500 cells/100 μL in a 96-well low-adsorption plate (Corning, CLS7007-24EA) for 3D cell culture, in which the following cell lines and specific amounts were used: • NSCLC: 2000 cells/100 μL/well • NCI-H292: Cell Bank of the Chinese Academy of Sciences, SCSP-582 • NCI-H322: Cobioer, CBP60134 • NCI-H1650: ATCC, CRL-5883 • NCI-H1975: ATCC, CRL-5908 • SK-MES-1: CoBioer, CBP60152 • NCI-H1703: ATCC, HTB-43 • PC9+hB7H3: constructed as described above • CRC and HNSCC: plated at 1500-2000 cells/100 μL in a 96-well white-bottom plate (NUNC, 136101) for 2D cell culture, in which the following cell lines and specific amounts were used: • CRC: 1500 cells/100 μL/well • CCK-81: CoBioer, CBP60581 • HT-55: CoBioer, CBP60012 • H508: CoBioer, CBP60795 • LS180: CoBioer, CBP60034 • HNSCC: 1500 cells/100 μL/well • TE-1: CoBioer, CBP60655 • Colo680: CoBioer, CBP60452. (2) The antibody molecules prepared in advance by dilution were added to the corresponding cell well plate, mixed well, and cultured in an incubator at 37° C. with 5% CO2 for 5 days. • (3) After 5 days of continuous culture for proliferation inhibition assay, the Cell-Titer reagent (Promega, G7572) prepared in advance was added to cell wells, the plate was left to stand at room temperature for 15-25 min in the dark, and then CRC and HNSCC cells were directly detected by a multimode microplate reader (Molecular Devices, Spectra MAXi3). • (4) NSCLC: Cell-Titer and the cell mixture were transferred to a 96-well white-bottom plate (NUNC, 136101) and detected by a multimode microplate reader (Molecular Devices, Spectra MAXi3).

[4] = tested on: H1703; test: Proliferation inhibition experiment, H1703 (NSCLC); format: cell-based; details: NCI-H1703; TKI highest concentration 1000 nM
Experimental: as §1

Row | SMILES | sensitivity of the cell line to EGFR-TKI, in words [3] | sensitivity of the cell line to EGFR-TKI, in words [4] | also measured
1 | C=CC(=O)N1CCN(c2nc(=O)n(-c3c(C)ccnc3C(C)C)c3nc(-c4c(O)cccc4F)c(F)cc23)[C@@H](C)C1 [AMG510, sotorasib] | – | – | Tumor volume (mm^3) ([1]; NCI-H358, NOG mice, antibodies 10 mg/kg i.p. Q3-4D x4 (h-IgG 20 mg/kg), AMG510 10 mg/kg intragastric QD x14, day 33): 180 mm^3; Tumor growth inhibition (%) ([1]; NCI-H358, NOG mice, antibodies 10 mg/kg i.p. Q3-4D x4, AMG510 10 mg/kg intragastric QD x14, day 33, vs h-IgG 20 mg/kg): 89%; body weight of mice ([1]; NCI-H358 tumor-bearing NOG mice, during administration and on day 33): caused a gradual decrease in the body weight of mice
2 | C#Cc1c(F)ccc2cc(O)cc(-c3ncc4c(N5CC6CCC(C5)N6)nc(OC[C@@]56CCCN5C[C@H](F)C6)nc4c3F)c12 [MRTX1133] | – | – | anti-LS180 tumor efficacy [2]: 36.45%
3 | C#Cc1cccc(Nc2ncnc3cc(OCCOC)c(OCCOC)cc23)c1 [erlotinib] | resistant and not sensitive | resistant and not sensitive | –
4 | C=CC(=O)Nc1cc(Nc2nccc(-c3cn(C)c4ccccc34)n2)c(OC)cc1N(C)CCN(C)C [osimertinib] | resistant and not sensitive | resistant and not sensitive | –
